# pKi: −log10 of the molar value.
# Molecular target: Urokinase-type plasminogen activator (Homo sapiens, UniProt P00749)
# Assay: Inhibition of human uPA using Z-Gly-Gly-Arg-AMC as substrate after 30 mins by fluorescence assay
row,pKi,SMILES
1,5.06,CC(C)C[C@@H]1NC(=O)[C@H]([C@@H](C)O)NC(=O)[C@H](CCCNC(=N)N)NC(=O)[C@H](C)NC(=O)[C@H]([C@@H](C)O)NC(=O)[C@@H]2CSCc3cc(cc(c3)CSC[C@@H](C(=O)NCC(=O)O)NC1=O)CSC[C@H](NC(=O)[C@H](C)N)C(=O)N[C@@H](CCCCN)C(=O)N[C@@H](CCC(N)=O)C(=O)N[C@@H](CO)C(=O)N[C@@H](C(C)C)C(=O)N2
2,4.57,C[C@H](N)C(=O)N[C@H]1CSCc2cc3cc(c2)CSC[C@@H](C(=O)NCC(=O)O)NC(=O)[C@@H]2CCCN2C(=O)[C@H](Cc2ccccc2)NC(=O)[C@H](CCCNC(=N)N)NC(=O)[C@H](C)NC(=O)[C@H]([C@@H](C)O)NC(=O)[C@H](CSC3)NC(=O)[C@H](CC(=O)O)NC(=O)[C@H](CO)NC(=O)[C@H](Cc2cnc[nH]2)NC(=O)[C@H](CCCCN)NC1=O
3,4.63,CSCC[C@@H]1NC(=O)[C@H]([C@@H](C)O)NC(=O)[C@H](Cc2ccccc2)NC(=O)[C@H](CCCCN)NC(=O)[C@@H]2CSCc3cc(cc(c3)CSC[C@@H](C(=O)NCC(=O)O)NC1=O)CSC[C@H](NC(=O)[C@H](C)N)C(=O)N[C@@H](CCCNC(=N)N)C(=O)NCC(=O)NCC(=O)N2

# More lines, now with the values behind:
row,SMILES,pKi
1,CC[C@H](C)[C@@H]1NC(=O)[C@H](CO)NC(=O)[C@H](CO)NC(=O)[C@H](CCCNC(=N)N)NC(=O)CNC(=O)[C@H](CCCNC(=N)N)NC(=O)[C@@H]2CSCc3cc(cc(c3)CSC[C@@H](C(=O)NCC(=O)O)NC1=O)CSC[C@H](NC(=O)[C@H](C)N)C(=O)N[C@@H]([C@@H](C)O)C(=O)N[C@@H](CCC(=O)O)C(=O)N[C@@H](Cc1ccccc1)C(=O)N[C@@H](CCC(N)=O)C(=O)N[C@@H]([C@@H](C)O)C(=O)N[C@@H](CC(=O)O)C(=O)N2,6.05
2,C[C@H](N)C(=O)N[C@H]1CSCc2cc3cc(c2)CSC[C@@H](C(=O)NCC(=O)O)NC(=O)[C@@H]2CCCN2C(=O)CNC(=O)CNC(=O)[C@H](CCCNC(=N)N)NC(=O)CNC(=O)[C@H](CCCNC(=N)N)NC(=O)[C@H](CSC3)NC(=O)[C@H](CC(=O)O)NC(=O)[C@H]([C@@H](C)O)NC(=O)[C@H](C)NC(=O)[C@H](C)NC(=O)[C@H](Cc2cnc[nH]2)NC(=O)[C@H](CC(N)=O)NC1=O,6.15
3,CC(C)C[C@@H]1NC(=O)[C@@H](NC(=O)[C@H](C)N)CSCc2cc3cc(c2)CSC[C@@H](C(=O)NCC(=O)O)NC(=O)[C@H](CO)NC(=O)[C@@H]2CCCN2C(=O)[C@H](CCCNC(=N)N)NC(=O)[C@H](CCCNC(=N)N)NC(=O)[C@H](CC(N)=O)NC(=O)[C@H](CCC(=O)O)NC(=O)[C@H](CSC3)NC(=O)CNC(=O)[C@H](CCCNC(=N)N)NC(=O)[C@H](CCC(=O)O)NC(=O)CNC(=O)[C@H](CCC(N)=O)NC1=O,5.32
4,CC(C)C[C@@H]1NC(=O)[C@H](C(C)C)NC(=O)[C@H](CCC(N)=O)NC(=O)[C@H]([C@@H](C)O)NC(=O)[C@H](C)NC(=O)[C@@H]2CCCN2C(=O)[C@@H]2CSCc3cc(cc(c3)CSC[C@@H](C(=O)NCC(=O)O)NC1=O)CSC[C@H](NC(=O)[C@H](C)N)C(=O)N[C@@H]([C@@H](C)O)C(=O)N[C@@H](C)C(=O)N[C@@H](CCCNC(=N)N)C(=O)N[C@@H]([C@@H](C)O)C(=O)N2,4.31
5,CC(C)C[C@@H]1NC(=O)[C@H](CO)NC(=O)[C@H](Cc2ccccc2)NC(=O)[C@H](CCCCN)NC(=O)[C@H](Cc2c[nH]c3ccccc23)NC(=O)[C@H](CC(N)=O)NC(=O)[C@@H](NC(=O)[C@H](C)N)CSCc2cc3cc(c2)CSC[C@H](NC1=O)C(=O)N[C@@H](CCC(=O)O)C(=O)N[C@@H]([C@@H](C)O)C(=O)N[C@@H](CCC(N)=O)C(=O)N[C@@H](CCCNC(=N)N)C(=O)N[C@@H](CC(N)=O)C(=O)N[C@@H](CCC(N)=O)C(=O)N[C@H](C(=O)NCC(=O)O)CSC3,5.83
6,CSCC[C@@H]1NC(=O)[C@H](CCC(N)=O)NC(=O)[C@H](CO)NC(=O)[C@H](CO)NC(=O)[C@@H]2CCCN2C(=O)[C@H](CO)NC(=O)[C@@H]2CSCc3cc(cc(c3)CSC[C@@H](C(=O)NCC(=O)O)NC1=O)CSC[C@H](NC(=O)[C@H](C)N)C(=O)N[C@@H](CC(N)=O)C(=O)N[C@@H](CO)C(=O)N[C@@H](CCCNC(=N)N)C(=O)N[C@@H](Cc1ccccc1)C(=O)N[C@@H](C)C(=O)N[C@@H](CC(C)C)C(=O)N2,4.83
